# Data as given in patent publication US20080058398A1, “Compounds” (priority 2006, published 2008).
# Where a name gives a salt, the structure may show the parent alone.
# What was measured:
# D2 receptors = D2 receptors (Homo sapiens, UniProt P14416); assay: affinity for dopamine receptors (D2); format: binding
# dopamine D3 receptors = dopamine D3 receptors (Homo sapiens, UniProt P35462); assay: affinity for dopamine receptors (D3); format: binding
# D3 = D3 (Homo sapiens, UniProt P35462); assay: GTPγS scintillation proximity assay (GTPγS-SPA), antagonist format; format: biochemical; settings: higher than Enantiomer 1
# Chain of D3 (P35462 whole entry): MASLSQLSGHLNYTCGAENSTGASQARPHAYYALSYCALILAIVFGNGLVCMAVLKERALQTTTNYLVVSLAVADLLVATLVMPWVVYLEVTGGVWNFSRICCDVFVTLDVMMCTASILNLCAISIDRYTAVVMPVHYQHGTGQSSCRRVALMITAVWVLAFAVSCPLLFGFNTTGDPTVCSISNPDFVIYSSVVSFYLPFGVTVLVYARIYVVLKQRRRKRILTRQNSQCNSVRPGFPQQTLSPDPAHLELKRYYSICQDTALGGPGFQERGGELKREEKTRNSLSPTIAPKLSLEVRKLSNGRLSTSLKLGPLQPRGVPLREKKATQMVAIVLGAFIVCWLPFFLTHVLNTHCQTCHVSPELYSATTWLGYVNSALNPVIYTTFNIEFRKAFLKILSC
# Experimental: Functional potency and intrinsic activity of compounds of this invention can be measured by the following GTPγS scintillation proximity assay (GTPγS-SPA). Cells used in the study are Chinese Hamster Ovary (CHO) Cells.
# Cell membranes are prepared as follows. Cell pellets are resuspended in 10 volumes of 50 mM HEPES, 1 mM EDTA pH 7.4, using KOH. On the day the following proteases are added to the buffer just prior to giving the homogenisation buffer.
# 25 ug/mL Bacitracin (Sigma B0125)−1000×stock=25 mg/mL in buffer
# The cells are homogenised by 2×15 second bursts in a 1 litre Glass Waring blender in a class two biohazard cabinet. The resulting suspension is spun at 500 g for 20 mins (Beckman T21 centrifuge: 1550 rpm). The supernatant is withdrawn with a 25 mL pipette, aliquotted into pre-chilled centrifuge tubes and spun at 48,000 g to pellet membrane fragments (Beckman T1270: 23,000 rpm for 30 mins). The final 48,000 g pellet is resuspended in Homogenisation Buffer, (4× the volume of the original cell pellet). […] Protein content in the membrane preparations is evaluated with the Bradford protein assay.
# The final top concentration of test drug is 3 uM in the assay and 11 points serial dilution curves 1:4 in 100% DMSO are carried out using a Biomek FX. […] Assay plates are counted on a Viewlux, 613/55 filter, for 5 min., between 2-6 hours after the final addition. […]
# [1] = solid state accelerated stability (appearance, assay and total impurities by HPLC)
# Experimental: The solid state accelerated condition adopted were 40° C./75% RH (Relative Humidity) closed and exposed, and 50° C./amb RH (Ambient Relative Humidity) closed under air atmosphere.
# At one month time point the following samples have been analysed for the appearance, assay and total impurities.
# Assay and total impurities tests have been performed by HPLC with fast gradient method.
# Chain of dopamine D3 receptors (P35462 whole entry): as above
# Chain of D2 receptors (P14416 whole entry): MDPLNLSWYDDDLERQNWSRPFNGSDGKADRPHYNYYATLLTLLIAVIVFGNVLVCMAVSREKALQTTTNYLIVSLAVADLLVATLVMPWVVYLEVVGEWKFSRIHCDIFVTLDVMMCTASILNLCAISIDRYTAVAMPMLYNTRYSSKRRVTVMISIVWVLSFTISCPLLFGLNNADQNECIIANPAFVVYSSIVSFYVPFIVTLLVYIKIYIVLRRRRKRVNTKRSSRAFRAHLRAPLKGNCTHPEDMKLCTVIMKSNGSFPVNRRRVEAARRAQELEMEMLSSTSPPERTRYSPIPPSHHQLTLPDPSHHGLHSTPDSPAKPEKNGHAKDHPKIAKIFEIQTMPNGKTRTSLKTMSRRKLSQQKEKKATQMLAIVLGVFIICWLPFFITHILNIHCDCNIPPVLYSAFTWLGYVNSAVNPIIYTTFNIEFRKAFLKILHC
smiles,measurement,setting,value
"Cc1ncoc1-c1nnc(SCCCN2C[C@@H]3C[C@]3(c3ccc(C(F)(F)F)cc3F)C2)n1C (single isomer, unassigned) [Enantiomer 2]",affinity for dopamine D2 receptors,D2 receptors,exhibit affinity
same,affinity for dopamine D3 receptors,dopamine D3 receptors,exhibit affinity
same,affinity for dopamine D3 versus D2 receptors,dopamine D3 receptors; D3 compared with D2,greater affinity for dopamine D3 than for D2 receptors
same,fpKi (D3) difference,D3,> 1 log-unit
"Cc1ncoc1-c1nnc(SCCCN2C[C@@H]3C[C@]3(c3ccc(C(F)(F)F)cc3F)C2)n1C.O=C(O)C(O)C(O)C(=O)O [Example 1, (1S,5R)-1-[2-fluoro-4-(trifluoromethyl)phenyl]-3-(3-{[4-methyl-5-(4-methyl-1,3-oxazol-5-yl)-4H-1,2,4-triazol-3-yl]thio}propyl)-3-azabicyclo[3.1.0]hexane (2R,3R) tartrate]",stability in comparison with the hydrochloride salt,[1],improved stability
same,total impurities,"[1]; after 1 month, at any stability condition tested",around 0.5 % a/a
"Cc1ncoc1-c1nnc(SCCCN2C[C@@H]3C[C@]3(c3ccc(C(F)(F)F)cc3F)C2)n1C [Preparation 7, (1S,5R)-1-[2-Fluoro-4-(trifluoromethyl)phenyl]-3-(3-{[4-methyl-5-(4-methyl-1,3-oxazol-5-yl)-4H-1,2,4-triazol-3-yl]thio}propyl)-3-azabicyclo[3.1.0]hexane hydrochloride]",change of total impurities,[1]; at any investigated stability condition,increase of total impurities
"Cc1ncoc1-c1nnc(SCCCN2CC3CC3(c3ccc(C(F)(F)F)cc3F)C2)n1C (centres unmarked) [the tartrate, 1-[2-fluoro-4-(trifluoromethyl)phenyl]-3-(3-{[4-methyl-5-(4-methyl-1,3-oxazol-5-yl)-4H-1,2,4-triazol-3-yl]thio}propyl)-3-azabicyclo[3.1.0]hexane]",stability in comparison with the hydrochloride salt,[1],improved stability
